The values that follow come from US11453666B2, “Autotaxin inhibitory compounds” (Cancer Research Technology Limited, priority 2015, dated 2022).

In the first assay the target is human recombinant ATX (Homo sapiens, UniProt Q13822). Nature of the assay: Autotaxin (ATX) activity Quanta Red assay. The settings on record: human recombinant ATX 0.8 μg/mL, 2 hours at room temperature, IC50 determined in duplicate; read-out: Activity (ATX activity, Quanta Red assay; IC50). It counts as biochemical. The method, then:
The reaction was stopped after 2 hours with a 20 μL addition of Quanta Red Stop solution (1:20 dilution in distilled water). The above-described mixture with DMSO alone was used as a positive control whereas that with DMSO alone without ATX was taken as a negative control.
Fluorescence was determined in a BMG Labtech Pherastar plus plate reader ([…]). Data were analysed using Excel fit software. IC50 values were determined in duplicate.
For `C[C@H](NC(=O)C[S+]([O-])c1nc2cccnc2n1Cc1ccc(OC(F)(F)F)cc1)c1ccc(F)cc1` (single isomer, unassigned) [Example 148], the IC50 was found to be 10 nM.
Same read-out and setting: then `C[C@H](NC(=O)C[S+]([O-])c1nc2cccnc2n1Cc1ccc(OC(F)(F)F)cc1)c1ccc(F)cc1` (single isomer, unassigned) [Example 149], with 178 nM.
Regarding `C[C@H](NC(=O)CCc1nc2cccnc2n1Cc1ccccc1)c1ccccc1` [Example 1, 3-(3-benzyl-3H-imidazo[4,5-b]pyridin-2-yl)-N—((S)-1-phenyl-ethyl)-propionamide], the IC50 came to 68 nM.
Consider `O=C(CCc1nc2cccnc2n1Cc1ccccc1)NCc1cccs1` [Example 3, 3-(3-Benzyl-3H-imidazo[4,5-b]pyridin-2-yl)-N-thiophen-2-ylmethyl-propionamide], for which the IC50 was determined as 855 nM.
Turning to `C[C@@H](NC(=O)CCc1nc2cccnc2n1Cc1ccccc1)c1ccccc1` [Example 4, 3-(3-Benzyl-3H-imidazo[4,5-b]pyridin-2-yl)-N-((R)-1-phenyl-ethyl)-propionamide], the IC50 is 2630 nM.
`C[C@H](NC(=O)CCc1nc2cccnc2n1Cc1ccc(C(F)(F)F)cc1)c1ccc(Cl)cc1` [Example 12, N-[(S)-1-(4-Chloro-phenyl)-ethyl]-3-[3-(4-trifluoromethyl-benzyl)-3H-imidazo[4,5-b]pyridin-2-yl]-propionamide]: the IC50 came to 2 nM.

Staying with this assay, now noted: read-out: Activity (ATX activity, Quanta Red assay; IC50).
Consider `Cc1ccccc1CNC(=O)CCc1nc2cccnc2n1Cc1ccccc1` [Example 5, 3-(3-Benzyl-3H-imidazo[4,5-b]pyridin-2-yl)-N-(2-methyl-benzyl)-propionamide], for which the IC50 is 854 nM.
On the same count and under the same terms, then `O=C(CCc1nc2cccnc2n1Cc1cccc(OC(F)(F)F)c1)NCc1cccc(OC(F)(F)F)c1` [Example 6, N-(3-Trifluoromethoxy-benzyl)-3-[3-(3-trifluoromethoxy-benzyl)-3H-imidazo[4,5-b]pyridin-2-yl]-propionamide], with 476 nM; and `O=C(CCc1nc2cccnc2n1Cc1ccc(OC(F)(F)F)cc1)N[C@@H](CO)c1ccccc1` [Example 7, N-((R)-2-Hydroxy-1-phenyl-ethyl)-3-[3-(4-trifluoromethoxy-benzyl)-3H-imidazo[4,5-b]pyridin-2-yl]-propionamide], with 1 nM; and `O=C(CCc1nc2cccnc2n1Cc1ccc(OC(F)(F)F)cc1)N[C@@H]1c2ccccc2C[C@@H]1O` [Example 8, N-((1R,2S)-2-Hydroxy-indan-1-yl)-3-[3-(4-trifluoromethoxy-benzyl)-3H-imidazo[4,5-b]pyridin-2-yl]-propionamide], with 1 nM.
As for `O=C(CCc1nc2cccnc2n1Cc1ccc(OC(F)(F)F)cc1)N[C@@H]1c2ccccc2C[C@H]1O` [Example 9, N-((1R,2R)-2-Hydroxy-indan-1-yl)-3-[3-(4-trifluoromethoxy-benzyl)-3H-imidazo[4,5-b]pyridin-2-yl]-propionamide], the IC50 was determined as 1 nM.
For `CN(C)CCCOc1ccc(CNC(=O)CCc2nc3cccnc3n2Cc2ccc(OC(F)(F)F)cc2)cc1` [Example 10, N-[4-(3-Dimethylamino-propoxy)-benzyl]-3-[3-(4-trifluoromethoxy-benzyl)-3H-imidazo[4,5-b]pyridin-2-yl]-propionamide], the IC50 was determined as 2 nM.
For `C[C@H](NC(=O)CCc1nc2cccnc2n1Cc1ccc(OC(F)(F)F)cc1)c1ccc(F)cc1` [Example 13, N-[(S)-1-(4-Fluoro-phenyl)-ethyl]-3-[3-(4-trifluoromethoxy-benzyl)-3H-imidazo[4,5-b]pyridin-2-yl]-propionamide], the IC50 worked out at 2 nM.
As to `COc1ccc(CNC(=O)CCc2nc3cccnc3n2Cc2ccc(OC(F)(F)F)cc2)cc1` [Example 14, N-(4-Methoxy-benzyl)-3-[3-(4-trifluoromethoxy-benzyl)-3H-imidazo[4,5-b]pyridin-2-yl]-propionamide], the IC50 amounted to 2 nM.
For `O=C(CCc1nc2cccnc2n1Cc1ccc(OC(F)(F)F)cc1)NC(CO)c1ccc(F)cc1` (stereo not drawn) [Example 15, N-[1-(4-Fluoro-phenyl)-2-hydroxy-ethyl]-3-[3-(4-trifluoromethoxy-benzyl)-3H-imidazo[4,5-b]pyridin-2-yl]-propionamide], the IC50 is 2 nM.
On to `C[C@H](NC(=O)CCc1nc2cccnc2n1Cc1ccc(Br)cc1)c1ccc(F)cc1` [Example 16, 3-[3-(4-Bromo-benzyl)-3H-imidazo[4,5-b]pyridin-2-yl]-N-[(S)-1-(4-fluoro-phenyl)-ethyl]-propionamide], for which the IC50 was 3 nM.
As to `C[C@H](NC(=O)CCc1nc2cccnc2n1Cc1ccc(F)c(F)c1)c1ccc(Br)cc1` [Example 17, N-[(S)-1-(4-Bromo-phenyl)-ethyl]-3-[3-(3,4-difluoro-benzyl)-3H-imidazo[4,5-b]pyridin-2-yl]-propionamide], the IC50 is 3 nM.
Turning to `O=C(CCc1nc2cccnc2n1Cc1ccc(OC(F)(F)F)cc1)NCc1ccc(Cl)cc1` [Example 18, N-(4-Chloro-benzyl)-3-[3-(4-trifluoromethoxy-benzyl)-3H-imidazo[4,5-b]pyridin-2-yl]-propionamide], the IC50 came to 3 nM.
Regarding `CN(C)CCOc1ccc(CNC(=O)CCc2nc3cccnc3n2Cc2ccc(OC(F)(F)F)cc2)cc1` [Example 19, N-[4-(2-Dimethylamino-ethoxy)-benzyl]-3-[3-(4-trifluoromethoxy-benzyl)-3H-imidazo[4,5-b]pyridin-2-yl]-propionamide], the IC50 is 4 nM.
With `O=C(CCc1nc2cccnc2n1Cc1ccc(OC(F)(F)F)cc1)NC(CO)c1ccc(OC(F)(F)F)cc1` (stereo not drawn) [Example 20, N-[2-Hydroxy-1-(4-trifluoromethoxy-phenyl)-ethyl]-3-[3-(4-trifluoromethoxy-benzyl)-3H-imidazo[4,5-b]pyridin-2-yl]-propionamide], the IC50 was determined as 3 nM.
Consider `C[C@H](NC(=O)CCc1nc2cccnc2n1Cc1ccc(Br)cc1)c1ccc(Cl)cc1` [Example 21, 3-[3-(4-Bromo-benzyl)-3H-imidazo[4,5-b]pyridin-2-yl]-N-[(S)-1-(4-chloro-phenyl)-ethyl]-propionamide], for which the IC50 stood at 5 nM.
As for `O=C(CCc1nc2cccnc2n1Cc1ccc(OC(F)(F)F)cc1)NCc1ccc(OC(F)(F)F)cc1` [Example 22, N-(4-Trifluoromethoxy-benzyl)-3-[3-(4-trifluoromethoxy-benzyl)-3H-imidazo[4,5-b]pyridin-2-yl]-propionamide], the IC50 turned out to be 4 nM.
Take `O=C(CCc1nc2cccnc2n1Cc1ccc(OC(F)(F)F)cc1)NC(CO)c1ccc(C(F)(F)F)cc1` (stereo not drawn) [Example 23, N-[2-Hydroxy-1-(4-trifluoromethyl-phenyl)-ethyl]-3-[3-(4-trifluoromethoxy-benzyl)-3H-imidazo[4,5-b]pyridin-2-yl]-propionamide]: the IC50 stood at 4 nM.
For `COc1ccc(Cn2c(CCC(=O)N[C@@H](C)c3ccc(Cl)cc3)nc3cccnc32)cc1F` [Example 24, N-[(S)-1-(4-Chloro-phenyl)-ethyl]-3-[3-(3-fluoro-4-methoxy-benzyl)-3H-imidazo[4,5-b]pyridin-2-yl]-propionamide], the IC50 was 4 nM.
In the case of `O=C(CCc1nc2cccnc2n1Cc1ccc(OC(F)(F)F)cc1)N[C@H]1CCc2ccccc21` [Example 25, N-(S)-Indan-1-yl-3-[3-(4-trifluoromethoxy-benzyl)-3H-imidazo[4,5-b]pyridin-2-yl]-propionamide], the IC50 amounted to 4 nM.
As for `Cc1cnc2c(c1)nc(CCC(=O)NCc1ccc(OCCCN(C)C)cc1)n2Cc1ccc(OC(F)(F)F)cc1` [Example 26, N-[4-(3-Dimethylamino-propoxy)-benzyl]-3-[6-methyl-3-(4-trifluoromethoxy-benzyl)-3H-imidazo[4,5-b]pyridin-2-yl]-propionamide], the IC50 amounted to 4 nM.
Regarding `COc1ccc(CNC(=O)CCc2nc3cccnc3n2Cc2ccc(OC(F)(F)F)cc2)cc1F` [Example 27, N-(3-Fluoro-4-methoxy-benzyl)-3-[3-(4-trifluoromethoxy-benzyl)-3H-imidazo[4,5-b]pyridin-2-yl]-propionamide], the IC50 was 4 nM.
Turning to `O=C(CCc1nc2cccnc2n1Cc1ccc(F)cc1)N[C@@H](CO)c1ccccc1` [Example 28, 3-[3-(4-Fluoro-benzyl)-3H-imidazo[4,5-b]pyridin-2-yl]-N-((R)-2-hydroxy-1-phenyl-ethyl)-propionamide], the IC50 worked out at 5 nM.
The same measure, in the same setting: then `C[C@H](NC(=O)CCc1nc2cccnc2n1Cc1ccc(OC(F)(F)F)cc1)c1ccccn1` [Example 29, N-((S)-1-Pyridin-2-yl-ethyl)-3-[3-(4-trifluoromethoxy-benzyl)-3H-imidazo[4,5-b]pyridin-2-yl]-propionamide], with 5 nM; and `O=C(CCc1nc2cccnc2n1Cc1ccc(OC(F)(F)F)cc1)NCc1ccc(F)cc1` [Example 30, N-(4-Fluoro-benzyl)-3-[3-(4-trifluoromethoxy-benzyl)-3H-imidazo[4,5-b]pyridin-2-yl]-propionamide], with 5 nM; and `CN(C)c1ccc(CNC(=O)CCc2nc3cccnc3n2Cc2ccc(OC(F)(F)F)cc2)cc1` [Example 31, N-(4-Dimethylamino-benzyl)-3-[3-(4-trifluoromethoxy-benzyl)-3H-imidazo[4,5-b]pyridin-2-yl]-propionamide], with 6 nM.
Take `O=C(CCc1nc2cccnc2n1Cc1ccc(C(F)(F)F)cc1)NC(CO)c1ccc(OC(F)(F)F)cc1` (stereo not drawn) [Example 32, N-[2-Hydroxy-1-(4-trifluoromethoxy-phenyl)-ethyl]-3-[3-(4-trifluoromethyl-benzyl)-3H-imidazo[4,5-b]pyridin-2-yl]-propionamide]: the IC50 came to 6 nM.
Still for that read-out and setting: under `O=C(CCc1nc2cccnc2n1Cc1ccc(F)cc1)NC(CO)c1ccc(OC(F)(F)F)cc1` (stereo not drawn) [Example 33, 3-[3-(4-Fluoro-benzyl)-3H-imidazo[4,5-b]pyridin-2-yl]-N-[2-hydroxy-1-(4-trifluoromethoxy-phenyl)-ethyl]-propionamide] stands 6 nM.
